Experimental data: patent US20220241311A1, “METHODS AND MATERIALS FOR TREATING GLYCOSYLATION DISORDERS” (priority 2018, published 2022)

System: PGM1-defective patient fibroblasts
Assay: Nucleotide sugar analysis (UPLC-PDA), patient fibroblasts
Format: cell-based, human
Protocol: Levels of nucleotides and sugar-nucleotides were determined. Fibroblast cell pellets (5×10^6 cells per sample) were lysed and extracted in 0.37 ml ice-cold 0.5 M perchloric acid with sonication on ice. Samples were neutralized with 86 μl ice-cold neutralization solution (2.5 M KOH in 1.5 M K2HPO4) after 5 minute sonication. To remove precipitated potassium perchlorate neutralized samples were centrifuged at 4° C. and 16,400×g for 10 minutes and filtered with 0.2 μm filters. Nucleotides and sugar-nucleotides were immediately analyzed and separated via ion-pair reverse phased chromatography using an Acquity HSS T3 column (150 mm×2.1 mm, 1.7 μm, Waters) connected to an Acquity H-class UPLC system. The column temperature was set to 40° C. and the column was equilibrated with solvent A (50 mM potassium phosphate buffer, 8 mM tetrabutylammonium hydrogensulfate, pH 6.5) at a flow rate of 0.45 ml min^−1. Autosampler temperature was maintained at 6° C. […] Nucleotides were detected by Acquity PDA detector (Waters, 260 nm) and quantified using ultrapure standards (Sigma). Data acquisition and processing was performed with the Empower3 software suite (Waters).
Nucleotide sugars were measured with serum starvation during 18 hours of culturing and without of serum starvation and applying normal media.

[1] = patient 1, 1 d + 0.75 mM Galactose
[2] = patient 1, 4 d + 0.75 mM Galactose
[3] = patient 2, 1 d + 0.75 mM Galactose
[4] = patient 2, 4 d + 0.75 mM Galactose

O=C[C@H](O)[C@@H](O)[C@@H](O)[C@H](O)CO [D-gal, D-galactose]
ADP (patient 1, 1 d 2 mM Galactose): 580.50 pmol/mio cells
ATP (patient 1, 1 d 2 mM Galactose): 2719.61 pmol/mio cells
CTP (patient 1, 1 d 2 mM Galactose): 342.25 pmol/mio cells
GDP (patient 1, 1 d 2 mM Galactose): 293.65 pmol/mio cells
GDP-Man (patient 1, 1 d 2 mM Galactose): 107.17 pmol/mio cells
GTP (patient 1, 1 d 2 mM Galactose): 542.24 pmol/mio cells
UDP (patient 1, 1 d 2 mM Galactose): 129.40 pmol/mio cells
UDP-Gal (patient 1, 1 d 2 mM Galactose): 453.09 pmol/mio cells
UDP-Glc (patient 1, 1 d 2 mM Galactose): 650.22 pmol/mio cells
UDP-GlcNAc (patient 1, 1 d 2 mM Galactose): 102.26 pmol/mio cells
UTP (patient 1, 1 d 2 mM Galactose): 1449.38 pmol/mio cells
cAMP (patient 1, 1 d 2 mM Galactose): 74.49 pmol/mio cells
ADP [1]: 584.35 pmol/mio cells
AMP [1]: 23.07 pmol/mio cells
ATP [1]: 2943.38 pmol/mio cells
CTP [1]: 366.00 pmol/mio cells
GDP [1]: 246.90 pmol/mio cells
GDP-Man [1]: 155.03 pmol/mio cells
GTP [1]: 588.22 pmol/mio cells
UDP [1]: 134.67 pmol/mio cells
UDP-Gal [1]: 386.15 pmol/mio cells
UDP-Glc [1]: 604.90 pmol/mio cells
UDP-GlcNAc [1]: 121.57 pmol/mio cells
UTP [1]: 1510.19 pmol/mio cells
cAMP [1]: 71.81 pmol/mio cells
ADP (patient 1, 4 d 2 mM Galactose): 772.84 pmol/mio cells
AMP (patient 1, 4 d 2 mM Galactose): 22.72 pmol/mio cells
ATP (patient 1, 4 d 2 mM Galactose): 3861.23 pmol/mio cells
CTP (patient 1, 4 d 2 mM Galactose): 370.91 pmol/mio cells
GDP (patient 1, 4 d 2 mM Galactose): 387.40 pmol/mio cells
GDP-Man (patient 1, 4 d 2 mM Galactose): 170.10 pmol/mio cells
GTP (patient 1, 4 d 2 mM Galactose): 763.70 pmol/mio cells
UDP (patient 1, 4 d 2 mM Galactose): 215.93 pmol/mio cells
UDP-Gal (patient 1, 4 d 2 mM Galactose): 398.07 pmol/mio cells
UDP-Glc (patient 1, 4 d 2 mM Galactose): 620.64 pmol/mio cells
UDP-GlcNAc (patient 1, 4 d 2 mM Galactose): 12.26 pmol/mio cells
UTP (patient 1, 4 d 2 mM Galactose): 1569.45 pmol/mio cells
cAMP (patient 1, 4 d 2 mM Galactose): 71.92 pmol/mio cells
ADP [2]: 789.98 pmol/mio cells
AMP [2]: 34.87 pmol/mio cells
ATP [2]: 3796.06 pmol/mio cells
CTP [2]: 342.60 pmol/mio cells
GDP [2]: 422.05 pmol/mio cells
GDP-Man [2]: 217.57 pmol/mio cells
GTP [2]: 749.54 pmol/mio cells
UDP [2]: 208.17 pmol/mio cells
UDP-Gal [2]: 331.94 pmol/mio cells
UDP-Glc [2]: 475.08 pmol/mio cells
UDP-GlcNAc [2]: 38.85 pmol/mio cells
UTP [2]: 1526.34 pmol/mio cells
cAMP [2]: 73.68 pmol/mio cells
ADP (patient 2, 1 d 2 mM Galactose): 610.98 pmol/mio cells
AMP (patient 2, 1 d 2 mM Galactose): 18.34 pmol/mio cells
ATP (patient 2, 1 d 2 mM Galactose): 5088.22 pmol/mio cells
CTP (patient 2, 1 d 2 mM Galactose): 419.20 pmol/mio cells
GDP (patient 2, 1 d 2 mM Galactose): 301.50 pmol/mio cells
GDP-Man (patient 2, 1 d 2 mM Galactose): 194.09 pmol/mio cells
GTP (patient 2, 1 d 2 mM Galactose): 982.69 pmol/mio cells
UDP (patient 2, 1 d 2 mM Galactose): 166.53 pmol/mio cells
UDP-Gal (patient 2, 1 d 2 mM Galactose): 527.44 pmol/mio cells
UDP-Glc (patient 2, 1 d 2 mM Galactose): 871.97 pmol/mio cells
UDP-GlcNAc (patient 2, 1 d 2 mM Galactose): 5.21 pmol/mio cells
UTP (patient 2, 1 d 2 mM Galactose): 2093.30 pmol/mio cells
cAMP (patient 2, 1 d 2 mM Galactose): 81.52 pmol/mio cells
ADP [3]: 754.10 pmol/mio cells
AMP [3]: 16.43 pmol/mio cells
ATP [3]: 5766.25 pmol/mio cells
CTP [3]: 448.80 pmol/mio cells
GDP [3]: 356.25 pmol/mio cells
GDP-Man [3]: 236.64 pmol/mio cells
GTP [3]: 1110.15 pmol/mio cells
UDP [3]: 219.47 pmol/mio cells
UDP-Gal [3]: 478.66 pmol/mio cells
UDP-Glc [3]: 821.98 pmol/mio cells
UDP-GlcNAc [3]: 36.15 pmol/mio cells
UTP [3]: 2422.95 pmol/mio cells
cAMP [3]: 77.51 pmol/mio cells
ADP (patient 2, 4 d 2 mM Galactose): 849.99 pmol/mio cells
AMP (patient 2, 4 d 2 mM Galactose): 20.40 pmol/mio cells
ATP (patient 2, 4 d 2 mM Galactose): 6520.85 pmol/mio cells
CTP (patient 2, 4 d 2 mM Galactose): 430.21 pmol/mio cells
GDP (patient 2, 4 d 2 mM Galactose): 356.50 pmol/mio cells
GDP-Man (patient 2, 4 d 2 mM Galactose): 340.74 pmol/mio cells
GTP (patient 2, 4 d 2 mM Galactose): 1241.95 pmol/mio cells
UDP (patient 2, 4 d 2 mM Galactose): 249.58 pmol/mio cells
UDP-Gal (patient 2, 4 d 2 mM Galactose): 455.92 pmol/mio cells
UDP-Glc (patient 2, 4 d 2 mM Galactose): 665.41 pmol/mio cells
UDP-GlcNAc (patient 2, 4 d 2 mM Galactose): 2.63 pmol/mio cells
UTP (patient 2, 4 d 2 mM Galactose): 2810.26 pmol/mio cells
cAMP (patient 2, 4 d 2 mM Galactose): 70.40 pmol/mio cells
ADP [4]: 834.56 pmol/mio cells
AMP [4]: 21.45 pmol/mio cells
ATP [4]: 6841.61 pmol/mio cells
CTP [4]: 425.54 pmol/mio cells
GDP [4]: 394.32 pmol/mio cells
GDP-Man [4]: 203.23 pmol/mio cells
GTP [4]: 1263.21 pmol/mio cells
UDP [4]: 262.74 pmol/mio cells
UDP-Gal [4]: 390.10 pmol/mio cells
UDP-Glc [4]: 611.51 pmol/mio cells
UDP-GlcNAc [4]: 4.53 pmol/mio cells
UTP [4]: 2976.41 pmol/mio cells
cAMP [4]: 72.52 pmol/mio cells
Nucleotide sugar ratio UDP-Glc/UDP-Gal, mean (patient cell lines on D-gal (1.63 without)): 1.56
